Experimental data published in patent US10918645B2 (LIFEARC, priority 2016, dated 2021).

Key:
Format in all cases: biochemical
Conditions in all cases: 1 μM inhibitor concentration
JNK2 = JNK2 (Homo sapiens (Human), UniProt P45984); experiment: JNK2 kinase selectivity assay
Protocol: JNK2 1(5-20 mU diluted in 50 mM Tris (pH 7.5), 0.1 mM EGTA, 1 mg/ml BSA, 0.1% b-mercaptoethanol) is assayed against ATF2 (activating transcription factor in a final volume of 25.5 μl in 50 mM Tris pH 7.5, 0.1 mM EGTA, 0.1% b-Mercaptoethanol, ATF2 (3 μM), 10 mM magnesium acetate and 0.02 mM [33P-g-ATP] (500-1000 cpm/pmole) and incubated for 30 min at room temperature. Assays are stopped by addition of 5 μl of 0.5 M (3%) orthophosphoric acid and then harvested onto P81 Unifilter plates with a wash buffer of 50 mM orthophosphoric acid.

p38aMAPK = p38aMAPK (Homo sapiens (Human), UniProt Q16539); experiment: p38aMAPK kinase selectivity assay
Protocol: SAPK 2a/p38 (5-20 mU diluted in 50 mM Tris pH 7.5, 0.1 mM EGTA, 0.1 mM Na3VO4, 0.1% b-mercaptoethanol, 1 mg/ml BSA) is assayed against MBP in a final volume of 25.5 μl containing 25 mM Tris pH 7.5, 0.1 mM EGTA, 0.33 mg/ml MBP, 10 mM magnesium acetate and 0.05 mM [33P-g-ATP] (50-1000 cpm/pmole) and incubated for 30 min at room temperature. Assays are stopped by addition of 5 μl of 0.5 M (3%) orthophosphoric acid and then harvested onto P81 Unifilter plates with a wash buffer of 50 mM orthophosphoric acid.

PDK1 = PDK1 (Homo sapiens (Human), UniProt O15530); experiment: PDK1 kinase selectivity assay
Protocol: PDK1 (5-20 mU diluted in 50 mM Tris pH 7.5, 0.05% b-mercaptoethanol, 1 mg/ml BSA) is assayed against PDKtide ([…]-[…]) in a final volume of 25.5 μl containing 50 mM Tris pH 7.5, 0.05% b-mercaptoethanol, 100 μM substrate peptide, 10 mM magnesium acetate and 0.02 mM [33P-g-ATP](50-1000 cpm/pmole) and incubated for 30 min at room temperature Assays are stopped by addition of 5 μl of 0.5 M (3%) orthophosphoric acid and then harvested onto P81 Unifilter plates with a wash buffer of 50 mM orthophosphoric acid.

PKBa = PKBa (Homo sapiens (Human), UniProt P31749, S473D); experiment: PKBa kinase selectivity assay
Protocol: ΔPH-PKBa-S473D (5-20 mU diluted in 50 mM Tris pH 7.5, 0.1 mM EGTA, 0.1% b-mercaptoethanol, 1 mg/ml BSA) is assayed against a modified Crosstide peptide […] in a final volume of 25.5 μl containing 50 mM Tris pH 7.5, 0.05% b-mercaptoethanol, 30 μM substrate peptide, 10 mM magnesium acetate and 0.005 mM [33P-g-ATP](50-1000 cpm/pmole) and incubated for 30 min at room temperature. Assays are stopped by addition of 5 μl of 0.5 M (3%) orthophosphoric acid and then harvested onto P81 Unifilter plates with a wash buffer of 50 mM orthophosphoric acid.

PHK = PHK kinase selectivity assay
Protocol: […] (5-20 mU diluted in 50 mM Na-b-glycerophosphate pH 7.0, 0.1% b-mercaptoethanol) is assayed against phosphorylase b peptide ([…]) in a final volume of 25.5 μl containing 50 mM Tris pH 8.6, 50 mM Na-b-glycerophosphate, 0.04 mM CaCl2, phosphorylase b peptide (0.196 mM), 10 mM magnesium acetate, 0.02 mM [33P-g-ATP] (500-1000 cpm/pmole) then incubated for 15 min at room temperature. Assays are stopped by addition of 5 μl of 0.5 M (3%) orthophosphoric acid and then harvested onto P81 Unifilter plates with a wash buffer of 50 mM orthophosphoric acid.

CDK2-CyclinA = CDK2-CyclinA (Homo sapiens (Human), UniProt P24941); experiment: CDK2-CyclinA kinase selectivity assay
Protocol: CDK2/cyclin A (5-20 mU diluted in 50 mM Hepes pH 7.5, 1 mM DTT, 0.02% Brij35, 100 mM NaCl) is assayed against Histone H1 in a final volume of 25.5 μl containing 50 mM Hepes pH7.5, 1 mM DTT, 0.02% Brij35, 100 mM NaCl, Histone H1 (1 mg/ml), 10 mM magnesium acetate and 0.02 mM [33P-g-ATP](500-1000 cpm/pmole) and incubated for 30 min at room temperature. Assays are stopped by addition of 5 μl of 0.5 M (3%) orthophosphoric acid and then harvested onto P81 Unifilter plates with a wash buffer of 50 mM orthophosphoric acid.

AuroraB = AuroraB (Homo sapiens (Human), UniProt Q96GD4); experiment: AuroraB kinase selectivity assay
Protocol: Aurora B (5-20 mU diluted in 50 mM Tris pH 7.5, 0.1 mM EGTA, 0.1% b-mercaptoethanol, 1 mg/ml BSA) is assayed against a substrate peptide ([…]) in a final volume of 25.5 μl containing 50 mM Tris pH 7.5, 0.05% b-mercaptoethanol, 300 μM substrate peptide, 10 mM magnesium acetate and 0.02 mM [33P-g-ATP](50-1000 cpm/pmole) and incubated for 30 min at room temperature. Assays are stopped by addition of 5 μl of 0.5 M (3%) orthophosphoric acid and then harvested onto P81 Unifilter plates with a wash buffer of 50 mM orthophosphoric acid.

RIPK2 = RIPK2 (Homo sapiens (Human), UniProt O43353); experiment: RIPK2 kinase selectivity assay
Protocol: RIPK2 (5-20 mU diluted in 50 mM Tris pH 7.5, 0.1 mM EGTA, 0.1% β-mercaptoethanol, 1 mg/ml BSA) is assayed against MBP in a final volume of […] containing 50 mM Tris pH 7.5, 0.1 mM EGTA, 0.33 mg/ml MBP, 10 mM magnesium acetate and 0.02 mM [33P-γ-ATP] (50-1000 cpm/pmole) and incubated for 30 min at room temperature. Assays are stopped by addition of 5 μl of 0.5 M (3%) orthophosphoric acid and then harvested onto P81 Unifilter plates with a wash buffer of 50 mM orthophosphoric acid.

FGF-R1 = FGF-R1 (Homo sapiens (Human), UniProt P11362); experiment: FGF-R1 kinase selectivity assay
Protocol: FGF-R1 (5-20 mU diluted in 50 mM Tris pH 7.5, 0.1 mM EGTA, 1 mg/ml BSA) is assayed against a substrate peptide (Poly Glut Tyr) in a final volume of 25.5 μl containing 50 mM Tris pH 7.5, 1 mg/ml substrate peptide, 10 mM magnesium acetate and 0.02 mM [33P-g-ATP] (50-1000 cpm/pmole) and incubated for 30 min at room temperature. Assays are stopped by addition of 5 μl of 0.5 M (3%) orthophosphoric acid and then harvested onto P81 Unifilter plates with a wash buffer of 50 mM orthophosphoric acid.

RIPK2, sequence (O43353 whole entry, species assumed): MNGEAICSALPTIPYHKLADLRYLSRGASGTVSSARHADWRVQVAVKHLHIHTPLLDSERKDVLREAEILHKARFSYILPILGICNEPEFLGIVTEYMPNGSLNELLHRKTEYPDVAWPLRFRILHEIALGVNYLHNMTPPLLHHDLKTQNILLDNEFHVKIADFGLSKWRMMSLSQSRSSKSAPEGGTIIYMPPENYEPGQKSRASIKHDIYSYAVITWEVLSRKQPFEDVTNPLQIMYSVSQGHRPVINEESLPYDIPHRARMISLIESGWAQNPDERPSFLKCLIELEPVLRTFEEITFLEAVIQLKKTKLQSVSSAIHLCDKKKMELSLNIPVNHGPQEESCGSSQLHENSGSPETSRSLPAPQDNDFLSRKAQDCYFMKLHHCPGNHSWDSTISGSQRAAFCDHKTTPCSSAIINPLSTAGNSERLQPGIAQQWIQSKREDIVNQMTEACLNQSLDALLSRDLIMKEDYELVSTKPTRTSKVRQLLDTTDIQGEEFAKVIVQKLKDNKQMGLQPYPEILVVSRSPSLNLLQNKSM
FGF-R1, sequence (P11362 22-822, species assumed): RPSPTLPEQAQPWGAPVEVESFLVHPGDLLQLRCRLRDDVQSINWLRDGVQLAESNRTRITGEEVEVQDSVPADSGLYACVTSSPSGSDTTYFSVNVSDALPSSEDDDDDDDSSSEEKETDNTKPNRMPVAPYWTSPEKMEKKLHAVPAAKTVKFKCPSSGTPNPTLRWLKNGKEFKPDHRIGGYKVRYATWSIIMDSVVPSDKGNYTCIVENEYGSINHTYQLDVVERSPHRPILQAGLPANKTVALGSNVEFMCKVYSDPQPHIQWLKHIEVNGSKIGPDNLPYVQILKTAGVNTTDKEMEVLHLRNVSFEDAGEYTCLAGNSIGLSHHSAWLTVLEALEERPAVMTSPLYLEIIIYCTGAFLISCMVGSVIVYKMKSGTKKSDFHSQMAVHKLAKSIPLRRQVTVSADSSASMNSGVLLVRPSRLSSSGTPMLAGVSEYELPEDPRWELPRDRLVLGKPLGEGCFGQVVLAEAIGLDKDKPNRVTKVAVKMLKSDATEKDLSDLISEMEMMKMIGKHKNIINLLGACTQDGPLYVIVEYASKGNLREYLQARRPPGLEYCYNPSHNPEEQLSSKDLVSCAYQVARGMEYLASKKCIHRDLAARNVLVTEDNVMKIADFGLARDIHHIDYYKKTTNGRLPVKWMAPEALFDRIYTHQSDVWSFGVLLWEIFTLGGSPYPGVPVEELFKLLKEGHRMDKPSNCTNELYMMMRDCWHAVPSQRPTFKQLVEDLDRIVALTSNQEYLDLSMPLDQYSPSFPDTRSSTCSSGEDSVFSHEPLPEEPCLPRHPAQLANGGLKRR
p38aMAPK, sequence (Q16539 whole entry): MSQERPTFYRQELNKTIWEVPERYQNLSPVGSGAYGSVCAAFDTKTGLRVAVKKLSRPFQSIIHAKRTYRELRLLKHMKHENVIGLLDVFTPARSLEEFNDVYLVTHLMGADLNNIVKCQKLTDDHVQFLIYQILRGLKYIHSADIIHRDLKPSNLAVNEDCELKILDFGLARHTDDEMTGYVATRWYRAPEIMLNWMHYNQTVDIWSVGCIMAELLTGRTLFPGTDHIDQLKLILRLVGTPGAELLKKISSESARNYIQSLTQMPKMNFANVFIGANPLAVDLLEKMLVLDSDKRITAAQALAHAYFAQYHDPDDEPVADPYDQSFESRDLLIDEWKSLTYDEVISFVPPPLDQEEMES
PDK1, sequence (O15530 whole entry): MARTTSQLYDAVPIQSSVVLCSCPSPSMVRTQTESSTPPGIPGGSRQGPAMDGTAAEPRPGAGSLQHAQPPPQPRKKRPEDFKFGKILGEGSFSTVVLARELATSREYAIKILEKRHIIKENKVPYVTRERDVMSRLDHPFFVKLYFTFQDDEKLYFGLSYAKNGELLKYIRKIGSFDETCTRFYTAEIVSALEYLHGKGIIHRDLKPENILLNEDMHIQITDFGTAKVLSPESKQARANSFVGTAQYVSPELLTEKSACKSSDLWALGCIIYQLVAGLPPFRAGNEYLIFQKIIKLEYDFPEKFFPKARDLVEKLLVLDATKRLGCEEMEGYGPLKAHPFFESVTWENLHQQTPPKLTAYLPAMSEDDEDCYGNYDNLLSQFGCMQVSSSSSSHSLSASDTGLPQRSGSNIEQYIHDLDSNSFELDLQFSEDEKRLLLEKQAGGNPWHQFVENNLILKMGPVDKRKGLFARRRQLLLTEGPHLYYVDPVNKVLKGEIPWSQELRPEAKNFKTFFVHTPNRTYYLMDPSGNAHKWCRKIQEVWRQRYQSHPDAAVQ
AuroraB, sequence (Q96GD4 whole entry): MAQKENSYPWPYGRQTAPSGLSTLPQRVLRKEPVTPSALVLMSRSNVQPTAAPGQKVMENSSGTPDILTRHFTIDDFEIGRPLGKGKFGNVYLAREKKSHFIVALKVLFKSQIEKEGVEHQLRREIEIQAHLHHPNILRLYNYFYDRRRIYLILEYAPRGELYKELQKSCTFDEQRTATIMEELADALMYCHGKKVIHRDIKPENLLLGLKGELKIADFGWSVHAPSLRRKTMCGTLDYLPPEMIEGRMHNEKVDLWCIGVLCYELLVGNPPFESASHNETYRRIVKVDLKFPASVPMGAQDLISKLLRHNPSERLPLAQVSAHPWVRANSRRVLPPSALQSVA
PKBa, sequence (P31749 118-480 S473D): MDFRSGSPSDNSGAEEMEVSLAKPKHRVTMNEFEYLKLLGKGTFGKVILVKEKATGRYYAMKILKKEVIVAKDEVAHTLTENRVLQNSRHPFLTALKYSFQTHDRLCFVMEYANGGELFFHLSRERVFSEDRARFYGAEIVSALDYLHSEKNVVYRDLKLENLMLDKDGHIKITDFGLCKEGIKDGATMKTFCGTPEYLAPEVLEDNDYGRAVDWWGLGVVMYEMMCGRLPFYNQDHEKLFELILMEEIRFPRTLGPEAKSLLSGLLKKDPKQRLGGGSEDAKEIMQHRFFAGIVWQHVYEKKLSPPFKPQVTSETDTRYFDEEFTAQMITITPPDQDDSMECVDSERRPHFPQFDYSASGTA
JNK2, sequence (P45984 whole entry, species assumed): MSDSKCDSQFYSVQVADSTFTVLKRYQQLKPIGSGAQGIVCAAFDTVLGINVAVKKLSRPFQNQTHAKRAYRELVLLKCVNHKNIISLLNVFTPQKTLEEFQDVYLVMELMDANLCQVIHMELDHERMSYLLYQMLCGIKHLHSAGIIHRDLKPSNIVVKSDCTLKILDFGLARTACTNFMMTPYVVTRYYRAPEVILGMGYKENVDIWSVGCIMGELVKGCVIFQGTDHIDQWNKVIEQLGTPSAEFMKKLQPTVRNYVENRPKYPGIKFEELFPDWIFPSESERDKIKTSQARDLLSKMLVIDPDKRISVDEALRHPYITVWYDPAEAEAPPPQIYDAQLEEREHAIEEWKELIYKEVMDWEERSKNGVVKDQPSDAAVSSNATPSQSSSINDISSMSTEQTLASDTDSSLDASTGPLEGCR

SMILES | percentage inhibition of JNK2 (JNK2) [percentage] | percentage inhibition of p38aMAPK (p38aMAPK) [percentage] | percentage inhibition of PDK1 (PDK1) [percentage] | percentage inhibition of PKBa (PKBa) [percentage] | percentage inhibition of PHK (PHK) [percentage] | percentage inhibition of CDK2-CyclinA (CDK2-CyclinA) [percentage] | percentage inhibition of AuroraB (AuroraB) [percentage] | percentage inhibition of RIPK2 (RIPK2) [percentage] | percentage inhibition of FGF-R1 (FGF-R1) [percentage]
CC(C)n1ncc2c1CN(C1CCN(C)CC1)c1nccc3[nH]nc-2c13 [Example 68] | 37 | 0 | 21 | 0 | 43 | 0 | 19 | 0 | 35
c1cc2[nH]nc3c2c(n1)N(C1CCC1)CCC3 [Example 22, 6-cyclobutyl-6,7,8,9-tetrahydro-2H-1,2,5,6-tetraazabenzo[cd]azulene] | 1 | 4 | 7 | 3 | 41 | 16 | 23 | 0 | 11
c1cc2[nH]nc3c2c(n1)N(C1CCCC1)CCC3 [Example 23, 6-cyclopentyl-6,7,8,9-tetrahydro-2H-1,2,5,6-tetraazabenzo[cd]azulene] | 0 | 0 | 0 | 0 | – | 0 | 1 | 0 | 19
CN1CCC(N2Cc3ccccc3-c3n[nH]c4ccnc2c34)CC1 [Example 55] | 41 | 6 | 42 | 1 | 73 | 10 | 38 | 7 | 9
c1cc2[nH]nc3c2c(n1)N(C1CCOCC1)CCC3 [Example 29, 6-(tetrahydro-2H-pyran-4-yl)-6,7,8,9-tetrahydro-2H-1,2,5,6-tetraazabenzo[cd]azulene] | 0 | 0 | 2 | 0 | 35 | 30 | 29 | 0 | 12
